Patent publication US20240366624A1, “METHODS AND COMPOSITIONS FOR TREATING THROMBOTIC DISEASE” (Washington University, priority 2023, published 2024)
“Also recorded” adds a separate entry of the source.

Tests used:
ERO1α = molecular target: T1, ERO1α (Homo sapiens, UniProt Q96HE7); settings: from studies; cited from earlier work
T1 sequence (Q96HE7 24-468): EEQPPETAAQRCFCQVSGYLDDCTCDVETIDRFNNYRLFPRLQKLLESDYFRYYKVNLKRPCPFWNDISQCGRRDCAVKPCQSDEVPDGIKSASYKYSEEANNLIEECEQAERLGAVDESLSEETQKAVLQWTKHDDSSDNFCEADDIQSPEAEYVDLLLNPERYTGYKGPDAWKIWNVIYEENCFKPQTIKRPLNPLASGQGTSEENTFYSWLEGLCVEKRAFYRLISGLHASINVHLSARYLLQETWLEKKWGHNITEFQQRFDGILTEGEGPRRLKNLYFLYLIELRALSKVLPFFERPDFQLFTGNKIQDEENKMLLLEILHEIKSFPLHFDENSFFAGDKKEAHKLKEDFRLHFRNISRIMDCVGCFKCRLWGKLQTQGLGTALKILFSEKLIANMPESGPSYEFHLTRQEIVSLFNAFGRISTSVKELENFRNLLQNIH

[1] = H2O2 (antioxidant) activity assay; assay type: biochemical
From the text: FIG. 17(A-F) is an exemplary embodiment of identification of novel ERO1α inhibitors by high throughput screening in accordance with the present disclosure. FIG. 17A: A scheme of an ERO1α activity assay. FIG. 17B: Screening of chemical libraries in the ERO1α activity assay. FIG. 17C: The inhibitory effect of selected compounds on ERO1α activity. FIG. 17D: The inhibitory effect of selected compounds on PDI activity. FIG. 17E: The inhibitory effect of selected compounds on H2O2 activity. FIG. 17F: The inhibitory effect of selected compounds on thiol-reacting activity. The data represent the mean±SD (n=3). *P<0.05, **P<0.01, ***P<0.001, and ****P<0.0001 vs. vehicle control, Student's t-test.
To identify a novel ERO1α inhibitor, 5800 compounds were screened using an ERO1α activity assay (FIG. 17A and FIG. 17B). […] The selected compounds were further tested in assays measuring PDI, antioxidant, and thiol-reacting activities (FIG. 17D through FIG. 17F). […] B12 inhibited P-selectin exposure and αIIbβ3 activation in agonist-activated mouse and human platelets in a concentration-dependent manner (FIG. 18B through FIG. 18E).

mouse platelets = test: Flow cytometry of P-selectin exposure and αIIbβ3 integrin activation, mouse platelets; assay type: cell-based; settings: 3 to 10 μM, mouse platelets, thrombin or CRP
Procedure: FIG. 10(A-E) is an exemplary embodiment of 15E9 not affecting platelet activation and aggregation in accordance with the present disclosure. Mouse platelets were treated with 0.02-0.03 (FIG. 10A P-selectin, FIG. 10B aIIbβ3) or 0.025 U/ml thrombin (FIG. 10C) in the presence of 10 μg/ml mouse IgG2a (IgG2a) or a blocking anti-ERO1α antibody (15E9). Flow cytometry (FIG. 10(A-B)) and aggregation (FIG. 10C) assays were performed. FIG. 10D: Human platelets were treated with 0.025 U/ml thrombin in the presence of mouse IgG2a (mIgG2a) or 10 μg/ml 15E9 and 16B6, followed by measuring aggregation. […] P values determined by unpaired Student's t-test (vs. mIgG1).
FIG. 18(A-R) is an exemplary embodiment of novel small-molecule inhibitors recapitulating the defect in Ero1α (endoplasmic reticulum oxidoreductase 1a)-null platelets in accordance with the present disclosure. […] After incubation with a different concentration of B12-5, the specific interaction between B12-5 and ERO1α was measured by subtracting the nonspecific binding. The KD value was calculated from the Kon and Koff values. […] P values determined by ANOVA and Dunnett test (FIG. 18(B-E), FIG. 18(1-L), and FIG. 18(O-R) [for B12-5]) or Student t test (FIG. 18M, FIG. 18N, and FIG. 18(O-R) [for BAPTA (1,2-bis(o-aminophenoxy)ethane-N,N,N′,N′-tetraacetic acid)]). […]

human platelets = test: Flow cytometry of P-selectin exposure and αIIbβ3 integrin activation, human platelets; assay type: cell-based; settings: 3 to 10 μM, human platelets, thrombin or CRP
From the text: FIG. 18(A-R) is an exemplary embodiment of novel small-molecule inhibitors recapitulating the defect in Ero1α (endoplasmic reticulum oxidoreductase 1a)-null platelets in accordance with the present disclosure. FIG. 18A: The structure of B12 and its inhibitory effect on ERO1α activity. FIG. 18(B-E): The inhibitory effect of B12 on P-selectin exposure and αIIbβ3 integrin activation in (FIG. 18B and FIG. 18C) mouse and (FIG. 18D and FIG. 18E) human platelets. FIG. 18F: The structure of B12-5 and its inhibitory effect on ERO1α activity. FIG. 18G: A docking model of B12-5-ERO1α (3AHQ) and flavin adenine dinucleotide (FAD)-ERO1α complex. There are pi-sulfur interactions of the phenothiazine head group (B112-5) or a tricyclic ring (FAD) with Met389 and Cys397. Also, there are H bond interactions between the tail/alkyl group and His255, Asn259, and Arg287. […] After incubation with a different concentration of B12-5, the specific interaction between B12-5 and ERO1α was measured by subtracting the nonspecific binding. The KD value was calculated from the Kon and Koff values. […] P values determined by ANOVA and Dunnett test (FIG. 18(B-E), FIG. 18(1-L), and FIG. 18(O-R) [for B12-5]) or Student t test (FIG. 18M, FIG. 18N, and FIG. 18(O-R) [for BAPTA (1,2-bis(o-aminophenoxy)ethane-N,N,N′,N′-tetraacetic acid)]). […]

SMILES	IC50 (ERO1α)	H2O2 inhibition at 100 μM (%) ([1]; 100 μM)	effect on H2O2 (antioxidant) activity ([1]; at or up to 100 μM)	P-selectin exposure and αIIbβ3 activation (mouse platelets)	P-selectin exposure and αIIbβ3 activation (human platelets)
O=C(O)c1cc(N2N=C(C(F)(F)F)/C(=C/c3ccc(-c4ccccc4)o3)C2=O)ccc1Cl [EN460]	1900 nM	–	–	–	–
O=C(CSc1nc(O)cc(O)n1)N1c2ccccc2Sc2ccccc21 [B12-5]	–	6.6 ± 2%	minimal effect; also recorded: did not affect	significantly reduced	significantly reduced
